Reference: patent publication US20230372318A1, “METHODS FOR TREATING A SUBJECT HAVING MULTIPLE SYSTEM ATROPHY” (Theravance Biopharma R&D IP, LLC, priority 2022, published 2023)

System: subjects with primary autonomic failures (MSA, PD, or PAF) and symptomatic nOH
Assay: Phase 3 22-week randomized withdrawal study in symptomatic nOH (Example 7)
Type: in vivo, human
Parameters: OHSA composite score, LS Mean / OHSA composite score, Mean / OHSA composite score, Median / OHSA composite score, LS Mean Difference / OHDAS item 1 (standing for a short time) score, Mean / OHDAS item 1 (standing for a short time) score, Median / OHDAS item 1 (standing for a short time) score, LS Mean / OHDAS item 1 (standing for a short time) score, LS Mean Difference: scale not given here
Conditions: for OHSA composite score, Mean / OHSA composite score, Median / OHSA composite score, LS Mean Difference / OHSA composite score, LS Mean: change at week 22, end of 6-week double-blind period; for OHDAS item 1 (standing for a short time) score, LS Mean / OHDAS item 1 (standing for a short time) score, Mean / OHDAS item 1 (standing for a short time) score, Median / OHDAS item 1 (standing for a short time) score, LS Mean Difference: week 22, end of 6-week double-blind period
Method: The study consisted of a 16-week open-label (OL) treatment period with ampreloxetine followed by a 6-week double-blind randomized withdrawal period where subjects were administered either ampreloxetine or placebo.
Eligible subjects were either (i) completers of the study of Example 6 (“Completers Group”), or (ii) symptomatic nOH subjects meeting all applicable study inclusion criteria and none of the applicable exclusion criteria (“De Novo Group”).
A 4-week screening period applied to the De Novo Group only and the Screening visit was conducted in clinic for all De Novo Group subjects.
A total of 203 subjects entered this study (170 subjects from Example 6 (85 from the ampreloxetine group and 85 from the placebo group) and 33 de novo subjects). During the OL period, 55 subjects discontinued treatment. At 16 weeks, 64 subjects were randomized to the ampreloxetine group (6 subjects discontinued the study) and 64 subjects were randomized to the placebo group (3 subjects discontinued the study). A total of 119 subjects completed the study. Of the 128 subjects entering the randomized period, 40 subjects had MSA (31%); 68 subjects had PD (53%); and 20 subjects had PAF (16%) (in each category, the subjects were split equally between ampreloxetine and placebo).
Beginning on Day 2, subjects received a single dose of 10 mg ampreloxetine once daily (QD) and continued thereafter for the 16-week duration of the OL treatment period. Following this 16-week OL treatment period, subjects were randomized to either continue on the active treatment or placebo (“PBO”) for a period of 6 weeks.
Subjects enrolled into the OL period of the study had visits scheduled for Day 15, Day 29, and every 4 weeks thereafter for assessments as outlined in the Schedule of Study Procedures. […] Those subjects not meeting this continuation criterion were discontinued and underwent an end of study visit. The end of study visit was completed within 2 weeks from the date of the last dose.
Following the completion of a total of 16 weeks OL treatment with ampreloxetine (V6), subjects were assessed for randomization in a 1:1 manner. Eligible subjects received 6 weeks of double-blind treatment of ampreloxetine or PBO once daily. Only subjects with OHSA #1 score of ≤7 were eligible for randomization for the double-blind treatment period.
Exploratory assessments included: orthostatic standing test; NMSS; EQ-5D-5L; HADS; and BSFC-s. For subjects with PD, exploratory assessments included: Unified Parkinson's Disease Rating Scale (UPDRS); and Parkinson's Disease Questionaire-8 (PDQ-8). For subjects with MSA, exploratory assessments included: Unified Multiple System Atrophy Rating Scale (UMSARS); and Composite Autonomic Symptom Score-31 (COMPASS-31).
The secondary endpoints included: • (a) Change from baseline in OHSA #1 at Week 6 post randomization (V9, D155); • (b) Change from baseline in OHSA composite score at Week 6 post randomization (V9, D155); • (c) Change from baseline in OHDAS composite score at Week 6 post randomization (V9, D155); • (d) Change from baseline in PGI-S at Week 6 post randomization (V9, D155); • (e) Change from baseline in percentage of time spent in standing position as measured by a wearable device at Week 6 post randomization (V9, D155); and • (f) Change from baseline in average number of steps taken as measured by a wearable device at Week 6 post randomization (V9, D155).

[1] = MSA subjects, Pre treatment baseline OHSA1 <7
[2] = MSA subjects, Pre treatment baseline OHSA1 >2
[3] = MSA subjects, Pre treatment baseline OHSA1 >=7
[4] = MSA subjects, Pre treatment baseline OHSA Composite <5.3
[5] = MSA subjects, Pre treatment baseline OHSA Composite >=5.3
[6] = MSA subjects, RW baseline OHSA1 <=2
[7] = MSA subjects, RW baseline OHSA Composite <2.5
[8] = MSA subjects, RW baseline OHSA Composite >=2.5
[9] = MSA subjects, UMSARS Part IV <4
[10] = MSA subjects, UMSARS Part IV <4, vs placebo
[11] = MSA subjects, UMSARS Part IV >=4
[12] = MSA subjects, UMSARS Part IV >=4, vs placebo
[13] = MSA subjects, nOH onset <1.6 years
[14] = MSA subjects, nOH onset <1.6 years, vs placebo
[15] = MSA subjects, nOH onset >=1.6 years
[16] = MSA subjects, nOH onset >=1.6 years, vs placebo
[17] = MSA subjects, end of 6-week double-blind randomized period, FIG. 3
[18] = MSA subjects, week 22, 10 mg, N 19

## Fc1cc(F)c(OCc2ccccc2C2CCNCC2)c(F)c1 [Ampreloxetine, 4-[2-(2,4,6-trifluorophenoxymethyl)phenyl]piperidine]
[1]
  OHSA composite score, Mean: −0.11
  OHSA composite score, Median: −0.1
MSA subjects, Pre treatment baseline OHSA1 <7, vs placebo
  OHSA composite score, LS Mean Difference: −1.08
[2]
  OHSA composite score, LS Mean: −0.77
  OHSA composite score, Mean: −0.96
  OHSA composite score, Median: −0.6
MSA subjects, Pre treatment baseline OHSA1 >2, vs placebo
  OHSA composite score, LS Mean Difference: −1.99
[3]
  OHSA composite score, LS Mean: 0.41
  OHSA composite score, Mean: 0.00
  OHSA composite score, Median: 0.5
MSA subjects, Pre treatment baseline OHSA1 >=7, vs placebo
  OHSA composite score, LS Mean Difference: −1.31
[4]
  OHSA composite score, LS Mean: −0.71
  OHSA composite score, Mean: −0.56
  OHSA composite score, Median: −0.05
MSA subjects, Pre treatment baseline OHSA Composite <5.3, vs placebo
  OHSA composite score, LS Mean Difference: −1.96
[5]
  OHSA composite score, LS Mean: 0.76
  OHSA composite score, Mean: 0.46
  OHSA composite score, Median: 0.3
MSA subjects, Pre treatment baseline OHSA Composite >=5.3, vs placebo
  OHSA composite score, LS Mean Difference: −0.97
[6]
  OHSA composite score, LS Mean: 0.74
  OHSA composite score, Mean: 0.86
  OHSA composite score, Median: 0.25
MSA subjects, RW baseline OHSA1 <=2, vs placebo
  OHSA composite score, LS Mean Difference: −0.91
[7]
  OHSA composite score, LS Mean: 0.95
  OHSA composite score, Mean: 0.98
  OHSA composite score, Median: 0.4
MSA subjects, RW baseline OHSA Composite <2.5, vs placebo
  OHSA composite score, LS Mean Difference: −0.90
[8]
  OHSA composite score, LS Mean: −0.92
  OHSA composite score, Mean: −0.90
  OHSA composite score, Median: −0.5
MSA subjects, RW baseline OHSA Composite >=2.5, vs placebo
  OHSA composite score, LS Mean Difference: −1.96
[9]
  OHSA composite score, LS Mean: 0.01
  OHSA composite score, Mean: −0.04
  OHSA composite score, Median: 0.25
  OHDAS item 1 (standing for a short time) score, LS Mean: −0.3
  OHDAS item 1 (standing for a short time) score, Mean: −0.3
  OHDAS item 1 (standing for a short time) score, Median: 0.0
[10]
  OHSA composite score, LS Mean Difference: −1.70
  OHDAS item 1 (standing for a short time) score, LS Mean Difference: −2.8
[11]
  OHSA composite score, LS Mean: −0.17
  OHSA composite score, Mean: −0.15
  OHSA composite score, Median: −0.15
  OHDAS item 1 (standing for a short time) score, LS Mean: 0.5
  OHDAS item 1 (standing for a short time) score, Mean: 1.0
  OHDAS item 1 (standing for a short time) score, Median: 1.0
[12]
  OHSA composite score, LS Mean Difference: −1.44
  OHDAS item 1 (standing for a short time) score, LS Mean Difference: 1.9
[13]
  OHSA composite score, LS Mean: 0.48
  OHSA composite score, Mean: 0.43
  OHSA composite score, Median: 0.50
  OHDAS item 1 (standing for a short time) score, LS Mean: −0.3
  OHDAS item 1 (standing for a short time) score, Mean: −0.3
  OHDAS item 1 (standing for a short time) score, Median: 0.0
[14]
  OHSA composite score, LS Mean Difference: −1.33
  OHDAS item 1 (standing for a short time) score, LS Mean Difference: −2.4
[15]
  OHSA composite score, LS Mean: −0.45
  OHSA composite score, Mean: −0.41
  OHSA composite score, Median: −0.20
  OHDAS item 1 (standing for a short time) score, LS Mean: −0.3
  OHDAS item 1 (standing for a short time) score, Mean: −0.1
  OHDAS item 1 (standing for a short time) score, Median: 0.0
[16]
  OHSA composite score, LS Mean Difference: −1.56
  OHDAS item 1 (standing for a short time) score, LS Mean Difference: −0.8
MSA subjects, 6-week double-blind randomized period, placebo +0.97, p=0.196
  OHDAS composite score, change: +0.16
MSA subjects, 6-week double-blind randomized period, placebo −12.4
  Systolic blood pressure upon standing for 3 minutes, mean change: +6.1 mmHg
MSA subjects, FIG. 4, vs placebo
  Quality of life, EQ-5D-5L visual analog scale: quality of life declines less or improves
[17]
  OHDAS walking long time: favor placebo
  OHSA and OHDAS composite scores and individual subscores: all favor ampreloxetine
MSA subjects, end of 6-week double-blind randomized withdrawal period, placebo +1.8, p=0.0861
  OHSA item 1 score, change: +0.3
MSA subjects, week 22, 10 mg vs placebo, P-value 0.0343
  Anxiety Total Score, Change from Baseline, LS Mean Difference (SE): −1.26 (0.573)
[18]
  Anxiety Total Score, Change from Baseline, LS Mean (SE): −1.05 (0.405)
  Anxiety Total Score, Change from Baseline, Mean (SD): −1.05 (1.900)
  Anxiety Total Score, Change from Baseline, Median: −1.00
Subgroups of MSA subjects, week 22, FIG. 6
  OHQ composite scores for subgroups: all favored ampreloxetine
